Values of other authors as cited in article PMC9395488, “First-in-human study of IM156, a novel potent biguanide oxidative phosphorylation (OXPHOS) inhibitor, in patients with advanced solid tumors” (Investigational New Drugs, 2022).

Key:
[1] = test system: patients (pts) with advanced solid tumors; settings: cited from earlier work
A549 = test system: A549; design: method as in ImmunoMet, 2018; settings: in A549; ref ImmunoMet, 2018; read-out: OXPHOS inhibition IC50; cited from earlier work
OXPHOS = test system: OXPHOS; design: method as in ImmunoMet, 2018; settings: at the same concentration; ref ImmunoMet, 2018; cited from earlier work
glioblastoma (GSC11) = test system: glioblastoma (GSC11); design: method as in ImmunoMet, 2018; settings: glioblastoma animal model, control group 47 days; ref ImmunoMet, 2018; cited from earlier work
Glioblastoma cells = test system: Glioblastoma cells; design: method as in ImmunoMet, 2018; settings: 15 µM IM156, 500 µM temozolomide, ref ImmunoMet, 2018; cited from earlier work

SMILES: Cc1nc(-c2nc(-c3ccc(OC(F)(F)F)cc3)no2)nn1Cc1cccc(N2CCC(S(C)(=O)=O)CC2)c1 [IACS-010759]
- patients with PR, percent [1]: 5%
- patients with SD [1]: 8 patients
- patients with SD, percent [1]: 38%
- Grade ≥ 3 AEs, percent of patients ([1]; human, in vivo): 43%
- diarrhea of any grade, percent of patients ([1]; human, in vivo): 10%
- elevations of blood lactate, percent of patients ([1]; human, in vivo): 71%
- nausea of any grade, percent of patients ([1]; human, in vivo): 67%
- vomiting of any grade, percent of patients ([1]; human, in vivo): 29%
- patients with PR ([1]; patient with prostate cancer): one

SMILES: CN(C)C(=N)N=C(N)N [metformin, reference compound]
- IC50 (A549): ~500 µM

SMILES: [H]/N=C(/N)N/C(=N/[H])NCCc1ccccc1 [phenformin, reference compound]
- time until OXPHOS inhibition starts to show (OXPHOS): ≥ 6 h

SMILES: Cn1nnc2c(C(N)=O)ncn2c1=O [temozolomide, reference compound]
- median survival time (glioblastoma (GSC11)): 58 days
- neurosphere size (Glioblastoma cells): decreased
